Like-named read-outs stand apart in the source and are kept apart here.
Target: T1, recombinant human PKM2 (Homo sapiens, UniProt P14618)
T1 construct: His (N); purchased R&D Systems
Assay: Human PKM2 activation assay (Kinase-Glo Plus luminescent detection of generated ATP)
Type: biochemical
Conditions: for Emax: read-out: hPKM2 Emax; for EC50: 4-parameter logistic fit
In short: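 N-His-tagged recombinant hPKM2 ([…]) with PEP and ADP was incubated with compound for 60 min at 26 °C, shaking, in 50 mM imidazole, 50 mM KCl, 7 mM MgCl2, 0.01% Tween20, 0.05% BSA, pH 7.2. ATP produced was read by Kinase-Glo Plus luminescence after 15 min.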

[1] = percentage activation normalised to DMSO vehicle (LOW) and 5 μM TEPP-46 (HIGH)
[2] = recombinant human PKM2 activation, read-out: hPKM2 EC50

T1 sequence (P14618 2-531 limits assumed): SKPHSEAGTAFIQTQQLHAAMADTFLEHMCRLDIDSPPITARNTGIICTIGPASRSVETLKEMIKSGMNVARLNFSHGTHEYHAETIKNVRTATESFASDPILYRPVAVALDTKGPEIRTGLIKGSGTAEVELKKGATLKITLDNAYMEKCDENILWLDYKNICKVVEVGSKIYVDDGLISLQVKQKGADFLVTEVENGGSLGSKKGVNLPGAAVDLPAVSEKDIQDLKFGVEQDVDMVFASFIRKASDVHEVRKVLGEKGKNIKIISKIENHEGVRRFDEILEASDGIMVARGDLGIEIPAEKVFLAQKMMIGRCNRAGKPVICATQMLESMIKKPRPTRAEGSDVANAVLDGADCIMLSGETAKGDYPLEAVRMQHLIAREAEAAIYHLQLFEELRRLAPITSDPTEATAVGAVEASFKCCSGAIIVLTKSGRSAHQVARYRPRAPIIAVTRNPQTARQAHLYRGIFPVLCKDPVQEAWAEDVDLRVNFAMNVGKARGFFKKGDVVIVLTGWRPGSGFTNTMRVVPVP

SMILES	Emax [1]	EC50 [2]	hPKM2 Emax [1]	EC50 (hPKM2 EC50, recombinant human PKM2 activation)	Emax
COc1ccc(Cn2ncc3cc(S(=O)(=O)c4cnc(C(F)F)s4)ccc3c2=O)cn1 [Example 173, 6-(2-(difluoromethyl)thiazol-5-ylsulfonyl)-2-((6-methoxypyridin-3-yl)methyl)phthalazin-1(2H)-one]	67.2%	152 nM			
N#Cc1sccc1Cn1ncc2cc(S(=O)(=O)c3ccccc3)ccc2c1=O [Example 23, 3-((1-oxo-6-(phenylsulfonyl)phthalazin-2(1H)-yl)methyl)thiophene-2-carbonitrile]	112%	265 nM			
COc1ccc(Cn2ncc3cc(S(=O)(=O)c4ccc5c(c4)CC(C)(C)O5)ccc3c2=O)cn1 [Example 166, 6-((2,2-dimethyl-2,3-dihydrobenzofuran-5-yl)sulfonyl)-2-((6-methoxypyridin-3-yl)methyl)phthalazin-1(2H)-one]	99.4%	131 nM			
COc1ccc(Cn2ncc3cc(S(=O)(=O)c4cn[nH]c4)ccc3c2=O)cn1 [Example 197, 6-((1H-pyrazol-4-yl)sulfonyl)-2-((6-methoxypyridin-3-yl)methyl)phthalazin-1(2H)-one]				153 nM	94.5%
COc1ccc(Cn2ncc3cc(S(=O)(=O)c4ccccc4OC)ccc3c2=O)cn1 [Example 164, 6-(2-methoxyphenylsulfonyl)-2-((6-methoxypyridin-3-yl)methyl)phthalazin-1(2H)-one]	107%	146 nM			
COc1cccc(S(=O)(=O)c2ccc3c(=O)n(Cc4ccc(OC)nc4)ncc3c2)c1 [Example 116, 6-(3-methoxyphenylsulfonyl)-2-((6-methoxypyridin-3-yl)methyl)phthalazin-1(2H)-one]	96.1%	59.5 nM			
COc1ccc(Cn2ncc3cc(S(=O)(=O)Nc4ccccc4)ccc3c2=O)cn1 [Example 122, 2-((6-methoxypyridin-3-yl)methyl)-1-oxo-N-phenyl-1,2-dihydrophthalazine-6-sulfonamide]	60%	590 nM			
COc1ccc(Cn2ncc3cc(S(=O)(=O)c4ccn(C(F)F)n4)ccc3c2=O)cn1 [Example 179, 6-(1-(difluoromethyl)-1H-pyrazol-3-ylsulfonyl)-2-((6-methoxypyridin-3-yl)methyl)phthalazin-1(2H)-one]	89.7%	56.1 nM			
COc1ccc([S@](=N)(=O)c2ccc3c(=O)n(Cc4ccc(OC)nc4)ncc3c2)cc1 (single isomer, unassigned) [Example 139]		129 nM	81.9%		
O=c1c2ccc(S(=O)(=O)c3ccccc3)cc2cnn1Cc1ccsc1CO [Example 22, 2-((2-(hydroxymethyl)thiophen-3-yl)methyl)-6-(phenylsulfonyl)phthalazin-1(2H)-one]	86.1%	102 nM			
COc1ccc(Cn2ncc3cc(S(=O)(=O)c4ccc5c(c4)CC(C)O5)ccc3c2=O)cn1 (stereo not shown) [Example 167, 2-((6-methoxypyridin-3-yl)methyl)-6-((2-methyl-2,3-dihydrobenzofuran-5-yl)sulfonyl)phthalazin-1(2H)-one]	95.5%	65.8 nM			
COc1ccc(Cn2ncc3cc(S(=O)(=O)c4ccc(OC(F)F)nc4)ccc3c2=O)cn1 [Example 124, 6-((6-(difluoromethoxy)pyridin-3-yl)sulfonyl)-2-((6-methoxypyridin-3-yl)methyl)phthalazin-1(2H)-one]	107%	31.3 nM			
Nc1cccc(Cn2ncc3cc(S(=O)(=O)c4ccccn4)ccc3c2=O)c1 [Example 144, 2-(3-aminobenzyl)-6-(pyridin-2-ylsulfonyl)phthalazin-1(2H)-one]	114%	144 nM			
Cn1ccc(S(=O)(=O)c2ccc3c(=O)n(Cc4cccc(N)c4)ncc3c2)n1 [Example 145, 2-(3-aminobenzyl)-6-((1-methyl-1H-pyrazol-3-yl)sulfonyl)phthalazin-1(2H)-one]	106%	156 nM			
COc1ccc(Cn2ncc3cc(S(=O)(=O)c4ccccc4)ccc3c2=O)c(C(N)=O)n1 [Example 14, 6-methoxy-3-((1-oxo-6-(phenylsulfonyl)phthalazin-2(1H)-yl)methyl)picolinamide]	95.5%	147 nM			
COc1ccc(S(=O)(=O)c2ccc3c(=O)n(Cc4cnccc4O)ncc3c2)cc1 [Example 107, 2-((4-hydroxypyridin-3-yl)methyl)-6-(4-methoxyphenylsulfonyl)phthalazin-1(2H)-one]	103%	585 nM			
COc1ccc(Cn2ncc3cc(S(=N)(=O)c4ccc(OC(F)F)cc4)ccc3c2=O)cn1 (racemic) [Example 134, 6-(4-(difluoromethoxy)phenylsulfonimidoyl)-2-((6-methoxypyridin-3-yl)methyl)phthalazin-1(2H)-one]	102%	88.1 nM			
COc1ccc(Cn2ncc3cc(S(=O)(=O)c4cnc5c(c4)OCCO5)ccc3c2=O)cn1 [Example 130, 6-((2,3-dihydro-[1,4]dioxino[2,3-b]pyridin-7-yl)sulfonyl)-2-((6-methoxypyridin-3-yl)methyl)phthalazin-1(2H)-one]	57.1%	224 nM			
Cc1onc(C(N)=O)c1Cn1ncc2cc(S(=O)(=O)c3ccccc3)ccc2c1=O [Example 94, 5-methyl-4-((1-oxo-6-(phenylsulfonyl)phthalazin-2(1H)-yl)methyl) isoxazole-3-carboxamide]	71.3%	588 nM			

The next lines start with results.

Emax [1]	EC50 [2]	hPKM2 Emax [1]	SMILES	EC50 (hPKM2 EC50, recombinant human PKM2 activation)	Emax
118%	183 nM		O=c1c2ccc(S(=O)(=O)c3cc4c(cn3)OCCO4)cc2cnn1Cc1cc[nH]n1 [Example 230, 2-((1H-pyrazol-3-yl)methyl)-6-((2,3-dihydro-[1,4]dioxino[2,3-c]pyridin-7-yl)sulfonyl)phthalazin-1(2H)-one]		
104%	84.4 nM		Cc1nc(Cn2ncc3cc(S(=O)(=O)c4cn[nH]c4)ccc3c2=O)c(F)cc1F [Example 342]		
	42.9 nM		Cc1[nH]nc(Cn2ncc3cc(S(=O)(=O)c4cc[nH]n4)ccc3c2=O)c1Cl [Example 332]		
105%	238 nM		COc1ccc(Cn2ncc3cc(S(=O)(=O)c4cnn(CCO)c4)ccc3c2=O)nc1 [Example 311]		
95.2%	185 nM		Cc1cccc(Cn2ncc3cc(S(=O)(=O)c4c[nH]nc4Cl)ccc3c2=O)n1 [Example 318]		
95.9%	85.5 nM		Cc1[nH]nc(Cn2ncc3cc(S(=O)(=O)c4ccn(C)n4)ccc3c2=O)c1Cl [Example 337]		
59.6%	638 nM		COc1ccc(Cn2ncc3cc(S(=O)(=O)c4ccn5ccnc5c4)ccc3c2=O)cn1 [Example 184, 6-(imidazo[1,2-a]pyridin-7-ylsulfonyl)-2-((6-methoxypyridin-3-yl)methyl)phthalazin-1(2H)-one]		
94.9%	36.7 nM		COC(C)c1nc(S(=O)(=O)c2ccc3c(=O)n(Cc4ccc5c(n4)CCO5)ncc3c2)cs1 (stereo not shown) [Example 350]		
68%	216 nM		O=c1c2ccc(S(=O)(=O)c3ccccc3)cc2cnn1Cc1cnc2ccccn12 [Example 261, 2-(imidazo[1,2-a]pyridin-3-ylmethyl)-6-(phenylsulfonyl)phthalazin-1(2H)-one]		
94.7%	44.9 nM		O=c1c2ccc(S(=O)(=O)c3ccc4c(n3)OCCO4)cc2cnn1Cc1cc[nH]n1 [Example 229, 2-((1H-pyrazol-3-yl)methyl)-6-((2,3-dihydro-[1,4]dioxino[2,3-b]pyridin-6-yl)sulfonyl)phthalazin-1(2H)-one]		
104%	155 nM		COc1ccc(S(=O)(=O)c2ccc3c(=O)n(Cc4c(O)ccnc4O)ncc3c2)cc1 [Example 255, 2-((2,4-dihydroxypyridin-3-yl)methyl)-6-(4-methoxyphenylsulfonyl)phthalazin-1(2H)-one]		
92.3%	191 nM		Cn1cc(S(=O)(=O)c2cc3cnn(Cc4cc[nH]n4)c(=O)c3cn2)cn1 [Example 266, 3-((1H-pyrazol-3-yl)methyl)-7-((1-methyl-1H-pyrazol-4-yl)sulfonyl)pyrido[3,4-d]pyridazin-4(3H)-one]		
101%	31.8 nM		COCCn1cc(S(=O)(=O)c2ccc3c(=O)n(Cc4ccc5c(n4)CCO5)ncc3c2)cn1 [Example 333]		
67.5%	858 nM		O=c1c2ccc(S(=O)(=O)c3cn[nH]c3)cc2cnn1Cc1cnc2c(c1)CCO2 [Example 293, 6-(1H-pyrazol-4-ylsulfonyl)-2-((2,3-dihydrofuro[2,3-b]pyridin-5-yl)methyl)phthalazin-1(2H)-one]		
96.8%	23.3 nM		O=c1c2ccc(S(=O)(=O)c3cnn(C4COC4)c3)cc2cnn1Cc1ccc2c(n1)CCO2 [Example 334]		
107%	109 nM		N=S(=O)(c1cn[nH]c1)c1ccc2c(=O)n(Cc3ccc4c(n3)CCO4)ncc2c1 (stereo not shown) [Example 341]		
96.4%	24.4 nM		Cc1c(Cl)c(Cn2ncc3cc(S(=O)(=O)c4cn[nH]c4)ccc3c2=O)nn1C [Example 338]		
98.4%	217 nM		COc1ccc(S(=O)(=O)c2ccc3c(=O)n(Cc4ccn(CCO)n4)ncc3c2)cn1 [Example 285, 2-((1-(2-hydroxyethyl)-1H-pyrazol-3-yl)methyl)-6-((6-methoxypyridin-3-yl)sulfonyl)phthalazin-1(2H)-one]		
110%	200 nM		Cc1cccc(Cn2ncc3cc(S(=O)(=O)c4n[nH]cc4F)ccc3c2=O)n1 [Example 316]		
91.5%	162 nM		O=c1c2ccc(S(=O)(=O)c3cc[nH]n3)cc2cnn1Cc1ccn(C(F)F)n1 [Example 328]		
112%	457 nM		O=c1c2ccc(S(=O)(=O)c3ccccc3)cc2cnn1Cc1ccn(C2COC2)n1 [Example 273, 2-((1-(oxetan-3-yl)-1H-pyrazol-3-yl)methyl)-6-(phenylsulfonyl)phthalazin-1(2H)-one]		

From patent US20260152487A1 (Sitryx Therapeutics Limited, priority 2021, published 2026)
